According to patent US9079866B2, “Flap modulators” (JANSSEN PHARMACEUTICA NV, priority 2013, dated 2015):

Target: human FLAP (Homo sapiens (Human), UniProt P20292)
Test: FLAP binding assay (HTRF format)
Settings: wild type FLAP, HTRF format
Experimental: The ability of the compounds of the present invention to treat a FLAP-mediated disease and/or disorder, or associated symptoms or complications thereof, was determined using the following procedures. Binding assay data represent the average value obtained from two different assay plates, with samples run in duplicate on each plate. Human whole blood assay data represent a single replicate on an assay plate using whole blood from at least one healthy donor.
Data are expressed as a HTRF ratio.

human FLAP, sequence (P20292 whole entry): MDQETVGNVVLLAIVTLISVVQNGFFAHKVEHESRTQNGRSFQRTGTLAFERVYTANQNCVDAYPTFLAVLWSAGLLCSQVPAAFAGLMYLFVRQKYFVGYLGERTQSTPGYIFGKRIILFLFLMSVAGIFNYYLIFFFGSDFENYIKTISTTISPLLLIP

Row | Structure (SMILES) | Ki [nM]
1 | Nc1ncc(-c2ccc(-c3ccccc3C(=O)N3CCNC(=O)C3)cc2F)cn1 [Example 520, 4-{[4′-(2-Aminopyrimidin-5-yl)-3′-fluorobiphenyl-2-yl]carbonyl}piperazin-2-one] | > 10000
2 | Nc1ncc(-c2ccc(-c3ccccc3Oc3ncccn3)cn2)cn1 [Example 566, 5-{5-[2-(Pyrimidin-2-yloxy)phenyl]pyridin-2-yl}pyrimidin-2-amine] | > 10000
3 | Nc1ncc(-c2ccc(-c3ccccc3Oc3ccnc(N)n3)cn2)cn1 [Example 567, 4-{2-[6-(2-Aminopyrimidin-5-yl)pyridin-3-yl]phenoxy}pyrimidin-2-amine] | 1140
4 | Nc1ccnc(Oc2ccccc2-c2ccc(-c3cnc(N)nc3)nc2)n1 [Example 568, 5-(5-{2-[(4-Aminopyrimidin-2-yl)oxy]phenyl}pyridin-2-yl)pyrimidin-2-amine] | 2500
5 | CN(C)S(=O)(=O)c1ccccc1-c1ccc(-c2cnc(N)cn2)cc1 [Example 572, 4′-(5-Aminopyrazin-2-yl)-N,N-dimethylbiphenyl-2-sulfonamide] | 370
6 | Nc1cnc(-c2ccc(-c3ccccc3S(=O)(=O)N3CCOCC3)cc2)cn1 [Example 573, 5-[2′-(Morpholin-4-ylsulfonyl)biphenyl-4-yl]pyrazin-2-amine] | 114
7 | CC(C)(C)NS(=O)(=O)c1ccccc1-c1ccc(-c2cn3cc(C(N)=O)ccc3n2)c(F)c1 [Example 582, 2-[2′-(tert-Butylsulfamoyl)-3-fluorobiphenyl-4-yl]imidazo[1,2-a]pyridine-6-carboxamide] | > 10000
8 | CS(=O)(=O)c1ccccc1-c1ccc(-c2cnc(N)cn2)cc1 [Example 589, 5-[2′-(Methylsulfonyl)biphenyl-4-yl]pyrazin-2-amine] | > 10000

Now from value to molecule:

Row | Ki [nM] | Structure (SMILES)
9 | > 10000 | C[C@@H](NC(=O)c1ccccc1-c1ccc(-c2cnc(N)nc2)c(F)c1)C(F)(F)F [Example 518, 4′-(2-Aminopyrimidin-5-yl)-3′-fluoro-N-[(1R)-2,2,2-trifluoro-1-methylethyl]biphenyl-2-carboxamide]
10 | > 10000 | Nc1cnc(-c2ccc(-c3ccccc3C(=O)N3CCNC(=O)C3)cc2F)cn1 [Example 519, 4-{[4′-(5-Aminopyrazin-2-yl)-3′-fluorobiphenyl-2-yl]carbonyl}piperazin-2-one]
11 | 750 | CN(C)S(=O)(=O)c1ccccc1-c1ccc(-c2cnc(N)cn2)cc1F [Example 575, 4′-(5-Aminopyrazin-2-yl)-2′-fluoro-N,N-dimethylbiphenyl-2-sulfonamide]
12 | > 10000 | CC(C)(C)NS(=O)(=O)c1ccccc1-c1ccc(-c2cn3c(C#N)cccc3n2)c(F)c1 [Example 584, N-tert-Butyl-4′-(5-cyanoimidazo[1,2-a]pyridin-2-yl)-3′-fluorobiphenyl-2-sulfonamide]
13 | > 10000 | CC(C)(C)NS(=O)(=O)c1ccccc1-c1ccc(-c2cn3cc(C#N)ccc3n2)c(F)c1 [Example 585, N-tert-Butyl-4′-(6-cyanoimidazo[1,2-a]pyridin-2-yl)-3′-fluorobiphenyl-2-sulfonamide]
14 | > 10000 | CC(C)(C)NS(=O)(=O)c1ccccc1-c1ccc(-c2cn3cc(C(F)(F)F)ccc3n2)c(F)c1 [Example 586, N-tert-Butyl-3′-fluoro-4′-[6-(trifluoromethyl)imidazo[1,2-a]pyridin-2-yl]biphenyl-2-sulfonamide]
15 | > 10000 | CCOC(=O)c1cccc2nc(-c3ccc(-c4ccccc4S(=O)(=O)NC(C)(C)C)cc3F)cn12 [Example 587, Ethyl 2-[2′-(tert-butylsulfamoyl)-3-fluorobiphenyl-4-yl]imidazo[1,2-a]pyridine-5-carboxylate]
16 | > 10000 | Cc1cc(-c2ccccc2S(C)(=O)=O)ccc1-c1cnc(N)cn1 [Example 590, 5-[3-Methyl-2′-(methylsulfonyl)biphenyl-4-yl]pyrazin-2-amine]
17 | ~2490 | Cc1cc(-c2ccccc2S(=O)(=O)N(C)C)ccc1-c1cnc(N)cn1 [Example 591, 4′-(5-Aminopyrazin-2-yl)-N,N,3′-trimethylbiphenyl-2-sulfonamide]
